Measurements reported in patent publication US8476303B2, “N-aminopyrrolylmethyltetrahydropyridines as anti-cancer agents” (Florida A&M University Board of Trustees, priority 2011, dated 2013).

Legend:
Format in all cases: cell-based
[1] = test system: MDA-MB-231 estrogen receptor-negative breast cancer cell line; test: CELLTITER-GLO luminescent cell viability assay, MDA-MB-231; conditions: MDA-MB-231 cells, 72 h at 37° C.
Procedure: (§1) The derivatives were examined for their cytotoxic effects on MCF-7 estrogen receptor-positive breast cancer cells, MDA-MB-231 estrogen receptor-negative breast cancer cell line, and Ishikawa cells, using the CELLTITER-GLO (CTG)® luminescent cell viability assay. All the compounds are tested in the three cell lines. Different concentration of compounds, ranging from about 0.01 nM to about 100,000 nM were delivered to 5×10^3 cells per well, which were then incubated for three days at 37° C., followed by the CTG assay.
(§2) Compounds Redda-GM-2-50, Redda-GM-2-55, and Redda-GM-2-58 were tested for their cytotoxic effects on MCF-7 estrogen receptor-positive breast cancer cells, MDA-MB-231 estrogen receptor-negative breast cancer cell line, and Ishikawa cells, using the CELLTITER-GLO® luminescent cell viability assay (Promega, Madison, Wis.) following the manufacturer's instruction.
(§3) CELLTITER-GLO® is a homogeneous method based on the quantification of ATP, which is an indicator of metabolically active cells. In this assay, the number of viable cells in culture is determined based on the quantification of ATP present, which signals the presence of metabolically active cells. Damaged cells are not detected as the ATP leaked from these cells is quickly consumed by ATPases that are also released upon damage). The amount of ATP is determined using a system based on luciferase and D-luciferin resulting in light generation.
(§4) The cell lines were plated in 13, 96 well plates at a density of 5000 cells/well in total volumes of 50 μL in phenol-red free medium and incubated for overnight. […]
(§5) Drug-exposed cells were incubated or 72 h at 37° C. in a 5% CO2 incubator, after which the plates were removed for CELLTITER-GLO® assay and equilibrated at room temperature for 30 min. […] Luminescence results were read on TriLux Luminometer. […] Data were expressed as percentage of untreated control (i.e. treatment value-blank/vehicle value blank), mean±SE for three replications.

[2] = test system: MCF-7 estrogen receptor-positive breast cancer cells; test: CELLTITER-GLO luminescent cell viability assay, MCF-7; conditions: MCF-7 cells, 72 h at 37° C.
Procedure: as §1, §2, §3, §4, §5

[3] = test system: Ishikawa cells; test: CELLTITER-GLO luminescent cell viability assay, Ishikawa; conditions: 72 h at 37° C.
Procedure: as §1, §2, §3, §4, §5

Row | Substance | IC50 [1] | IC50 [2] | IC50 [3]
1 | 3-((1H-pyrrol-1-yl)methyl)-1-(phenylsulfonimido)pyridinium Ylide [Redda-GM-2-50] | 44 µM | 47 µM | 28 µM
2 | 3-((1H-pyrrol-1-yl)methyl)-1-(4-methylphenylsulfonamido)pyridinium Ylide [Redda-GM-2-55] | 83.6 µM | 31.8 µM | 78.5 µM
3 | 3-((1H-pyrrol-1-yl)methyl)-1-(4-methoxyphenylsulfonamido)pyridinium Ylide [Redda-GM-2-58] | 53 µM | 49 µM | 28 µM
